Measurements taken from patent publication US12543733B2 (priority 2020, dated 2026).
Values after ≈ are worked out from the molar mass of the structure shown. Where a name gives a salt, the structure may show the parent alone. Read-outs that look alike come from different tables or passages of the source.

Tests used:
housefly = conditions: cited from earlier work
Sitophilus oryzae = assay: Fumigation assay (fumigant toxicity) against adults of stored-product insects; type: in vivo; conditions: for LC50: Sitophilus oryzae
Description: (§1) Culturing of Insects: The stored product insect rice weevil (S. oryzae L.) was reared on whole wheat and the rust-red flour beetle (T. castaneum Herbst.) was reared on wheat flour with 5% yeast. Rice weevil and flour beetle were maintained at 23.6±2.5° C., 70% relative humidity and a photoperiod of 12:12 (Light:Dark). Corcyra cephalonica were reared on medium consisting of finely ground rice and maize flour in the ratio 1:1 (w/w) under laboratory conditions (27±1° C., 75±5% R.H. with a 12:12 h light:dark cycle.

Tribolium castaneum = assay: as above; type: in vivo; conditions: for LC50: Tribolium castaneum
Description: as §1

[1] = system: C. arietinum (Chick pea) seeds; assay: Seed germination test; type: in vivo; conditions: for % germination (Mean ± SE): Chick pea
Description: (§2) In order to assess the effect of isosecotanapartholide on plant growth and seed germination, particularly 50 seeds of Chickpea and Green gram sample were treated with isosecotanapartholide at 50 and 100 ppm and germination tests were done at […] and 72 hours of exposure treatments. From each sample, twenty grains seeds were randomly selected from the treatment and soaked for about 30 minutes in distilled water, and kept on filter paper (paper towel) in a petri dish, moistened everyday with distilled water, and allowed to germinate at room temperature (25±2° C.). After 48 and 72 hours, germinated seeds were counted and percentage germination was determined as in Radwan et al. 2019 (Annals of Agricultural Sciences, 64(2), 183-187). Three replications of each were made for both treatment and control.
(§3) From each sample, twenty grains seeds were randomly selected from the treatment and soaked for about 30 minutes in distilled water, and kept on filter paper (paper towel) in a petri dish, moistened everyday with distilled water, and allowed to germinate at room temperature (25±2° C.). After 48 and 72 hours, germinated seeds were counted and percentage germination was determined as in Radwan et al. 2019 (Annals of Agricultural Sciences, 64(2), 183-187). Three replications of each were made for both treatment and control.

[2] = system: V. radiata (Green gram) seeds; assay: Seed germination test; type: in vivo; conditions: for % germination (Mean ± SE): Green gram
Description: as §2, §3

Corcyra cephalonica = assay: Fumigation assay (fumigant toxicity) against adults of stored-product insects; type: in vivo; conditions: C. cephalonica adults, mortality after 24 hours of exposure
Description: as §1

[3] = system: stored grain insect pests; assay: Fumigation assay, range over the tested species
Description: Measuring insecticidal activity of Isosecotanapartholide and Lemon grass oil (Cymbopogon flexuosus) by Fumigation Assay: The insecticidal activity of Isosecotanapartholide and lemon grass oil was assessed by fumigation assay against adults of stored-product insects (Corcyra cephalonica, Sitophilus oryzae and Tribolium castaneum). For each treatment, 50 individuals were tested for S. oryzae and T. castaneum; particularly adults were released into 0.85 L desiccators that served as the fumigation chambers. In each desiccator, a Whatman No. 1 filter circle (diameter: 9 cm) was placed to serve as an evaporating surface for injecting active extract. […] Five replicates were used for each dosage and LC50 was determined from dose response data using probit analysis. Insect mortality for isosecotanapartholide was recorded after 24 hours of exposure. Insects were considered dead when no leg or antennal movements were observed. Morality rate was calculated using Abbott formula for natural mortality in untreated (Abbott, 1925, Journal of Economic Entomology, 18, 265-267).
For each time point, 20 adults stored grain pests were used and determined percentage mortality.

C. arietinum plants = assay: Plant growth observation after seed treatment; type: in vivo
V. radiata plants = assay: Plant growth observation after seed treatment; type: in vivo
adults of S. oryzae = conditions: 24 hours of exposure time; cited from earlier work
[4] = comparison with other fumigants, fumigation bioassay, read-out: LC50
[5] = comparison with other fumigants, fumigation bioassay
[6] = in comparison with control, observed for 2 weeks

With `CC12CCC(CC1)C(C)(C)O2` [1,8 Cineole] as the molecule, how does the LD50 (housefly) read?
The LD50 was 118 μg/fly.

What about the LC50 (Sitophilus oryzae; [4]) of the same molecule?
Its LC50 is 31 ng/mL (≈ 0.201 µM).

What about the LC50 (Tribolium castaneum; [4]) of the same molecule?
Its LC50 is 47 ng/mL (≈ 0.305 µM).

Which LC50 (Sitophilus oryzae; [5]) does the source give for `Cc1ccc(C(C)C)cc1O` [Carvacol] here?
Its LC50 is 14.2 ng/mL (≈ 0.0945 µM).

And the LC50 (Tribolium castaneum; [5])?
Its LC50 is 17.0 ng/mL (≈ 0.113 µM).

Which LC50 (Sitophilus oryzae; [4]) does the source give for `CCOC=O` [Ethyl formate] here?
The LC50 was 0.72 ng/mL.

And the LC50 (Tribolium castaneum; [4])?
Its LC50 is 1.12 ng/mL.

For `C=C1C(=O)O[C@H](C2=C(C)[C@@H](O)CC2=O)[C@H]1CCC(C)=O` [Isosecotanapartholide, (4S,5S)-5-[(3S)-3-hydroxy-2methyl-5-oxocyclopent-1-en-1-yl]-3-methylidene-4-(3oxobutyl)dihydrofuran-2(3H)-one], which “adverse effect on seed germination” value ([1]; C. arietinum, in comparison with control) is on record?
Its value is “did not cause any adverse effect”.

What about the “% germination (Mean ± SE)” value ([1]; 50 PPM, 24 hours) of the same molecule?
Its value is 96.00 ± 2.30%.

And the “% germination (Mean ± SE)” value ([1]; 50 PPM, 72 hours)?
The value was 97.33 ± 1.33%.

What about the “% germination (Mean ± SE)” value ([1]; 100 PPM, 24 hours) of the same molecule?
Its value is 94.67 ± 1.33%.

And the “% germination (Mean ± SE)” value ([1]; 100 PPM, 72 hours)?
Its value is 96.00 ± 2.30%.

What about the “% germination (Mean ± SE)” value ([2]; 50 PPM, 24 hours) of the same molecule?
Its value is 93.33 ± 1.33%.

And the “% germination (Mean ± SE)” value ([2]; 50 PPM, 72 hours)?
Its value is 94.67 ± 1.33%.

And the “% germination (Mean ± SE)” value ([2]; 100 PPM, 24 hours)?
The value was 96.00 ± 2.30%.

And the “% germination (Mean ± SE)” value ([2]; 100 PPM, 72 hours)?
The value was 96.00 ± 2.30%.

And the “adverse effect on seed germination” value ([2]; V. radiata, in comparison with control)?
Its value is “did not cause any adverse effect”.

What about the LC90 (Sitophilus oryzae; S. oryzae adults, fumigant toxicity, mortality after 24 hours of exposure) of the same molecule?
The LC90 was 3.274 ng/mL (≈ 0.0118 µM).

What about the LC50 (Sitophilus oryzae; S. oryzae adults, fumigant toxicity, mortality after 24 hours of exposure, read-out: LC50) of the same molecule?
Its LC50 is 1.82 ng/mL (≈ 0.00654 µM).

And the LC50 (Sitophilus oryzae; [4])?
The LC50 was 1.82 ng/mL (≈ 0.00654 µM).

What about the LC90 (Corcyra cephalonica) of the same molecule?
Its LC90 is 3.296 ng/mL (≈ 0.0118 µM).

And the LC50 (Corcyra cephalonica; Corcyra cephalonica)?
Its LC50 is 1.83 ng/mL (≈ 0.00658 µM).

And the LC90 (Tribolium castaneum; T. castaneum adults, fumigant toxicity, mortality after 24 hours of exposure)?
Its LC90 is 3.946 ng/mL (≈ 0.0142 µM).

What about the LC50 (Tribolium castaneum; T. castaneum adults, fumigant toxicity, mortality after 24 hours of exposure, read-out: LC50) of the same molecule?
Its LC50 is 2.19 ng/mL (≈ 0.00787 µM).

And the LC50 (Tribolium castaneum; [4])?
The LC50 was 2.19 ng/mL (≈ 0.00787 µM).

And the LC50 values [3]?
Its LC50 values is 1.7 to 2.2 ng/mL.

What about the LC90 range [3] of the same molecule?
The LC90 range was 3.2 to 4.0 ng/mL.

And the “response on plant growth” value (C. arietinum plants; 50 ppm, FIG. 4 (A))?
Its value is “comparable to control”.

And the “adverse effect on plant growth” value (C. arietinum plants; [6])?
The value was “did not cause any adverse effect”.

What about the “response on plant growth” value (V. radiata plants; 50 ppm, FIG. 4 (B)) of the same molecule?
Its value is “comparable to control”.

What about the “adverse effect on plant growth” value (V. radiata plants; [6]) of the same molecule?
Its value is “did not cause any adverse effect”.

Which results are given for `C=CC(C)(O)CCC=C(C)C` (centres unmarked) [Linalool]?
LC50 (Sitophilus oryzae; [4]): 39.2 ng/mL (≈ 0.254 µM); LC50 (Tribolium castaneum; [4]): 49.8 ng/mL (≈ 0.323 µM)

For `CBr` [Methyl bromide], which LC50 (Sitophilus oryzae; [4]) is on record?
The LC50 was 3.6 ng/mL.

And the LC50 (Tribolium castaneum; [4])?
Its LC50 is 8.4 ng/mL.

What does the source list for `P` [Phosphine]?
LC50 (Sitophilus oryzae; [5]): 7.8 ng/mL (≈ 0.229 µM); LC50 (Tribolium castaneum; [5]): 9.8 ng/mL (≈ 0.288 µM)

For `C=CCN=C=S` [allylisothiocyanate], which concentration found toxic (adults of S. oryzae) is on record?
The concentration found toxic was “less than 6.3 μl/l”.
